Results: ChEMBL document CHEMBL4706498, “Rosuvastatin based novel 3-substituted isocoumarins / 3-alkylidenephthalides: Ultrasound assisted synthesis and identification of new anticancer agents” (Eur J Med Chem, 2020)
Active and inactive are the calls of the source. The calls are words filed in the database; no cut-off is given here.

Experiments:
HepG2 = assay: Cytotoxicity against human HepG2 cells assessed as inhibition of cell growth at 10 uM measured after 24 hrs by MTT assay (reference value: 0.21%); type: functional
[1] = Cytotoxicity against human HEK cells assessed as inhibition of cell growth at 10 uM measured after 24 hrs by MTT assay (reference value: 0.11%); type: cell-based
PA-1 [2] = assay: Cytotoxicity against human PA-1 cells assessed as inhibition of cell growth at 10 uM measured after 24 hrs by MTT assay (reference value: 0.19%); type: functional
HCT-116 [3] = assay: Cytotoxicity against human HCT-116 cells assessed as inhibition of cell growth at 10 uM measured after 24 hrs by MTT assay (reference value: 0.17%); type: functional
[4] = Toxicity in zebra fish embryo measured 5 days post fertilization by measuring teratogenicity at 1 to 100 uM; parameters: species or system Danio rerio; conditions: zebrafish, 120 h, dose 1-100 µM, time 5 day
PANC-1 [5] = assay: Inhibition of human Akt in human PANC-1 cells assessed as cell growth arrest at 50 uM measured after 18 hrs by Western blot assay; type: cell-based
PANC-1 [6] = assay: Inhibition of human Akt in human PANC-1 cells assessed as inhibition of Akt phosphorylation at 50 uM measured after 18 hrs by Western blot assay; type: cell-based
[7] = Toxicity in 7 days post fertilize zebrafish embryo assessed as morphological abnormalities or atrioventricular blocks measured after 24 hrs by bright field microscopic analysis; parameters: species or system Danio rerio; conditions: in vivo, dose 1-100 µM
[8] = molecular target: T1, RAC-alpha serine/threonine-protein kinase (Homo sapiens, UniProt P31749)
T1 sequence (P31749 whole entry): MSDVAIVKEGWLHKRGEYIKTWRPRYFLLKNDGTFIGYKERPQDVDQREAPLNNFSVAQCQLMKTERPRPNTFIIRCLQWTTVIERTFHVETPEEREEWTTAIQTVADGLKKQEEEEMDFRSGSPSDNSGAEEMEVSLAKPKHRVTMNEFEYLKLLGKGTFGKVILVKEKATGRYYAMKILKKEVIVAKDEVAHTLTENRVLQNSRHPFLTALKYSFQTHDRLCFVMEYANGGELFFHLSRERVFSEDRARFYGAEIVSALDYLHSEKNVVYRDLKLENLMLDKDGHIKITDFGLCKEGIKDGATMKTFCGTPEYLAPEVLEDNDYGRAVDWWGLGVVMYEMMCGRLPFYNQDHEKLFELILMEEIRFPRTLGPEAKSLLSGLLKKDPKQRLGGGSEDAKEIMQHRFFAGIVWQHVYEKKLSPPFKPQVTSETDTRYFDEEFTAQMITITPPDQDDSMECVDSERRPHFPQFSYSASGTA
Description: Inhibition of Akt-1 (unknown origin)

[9] = molecular target: RAC-beta serine/threonine-protein kinase (Homo sapiens) (UniProt P31751); assay: Binding affinity to Akt2 (unknown origin)
RAC-beta serine/threonine-protein kinase (Homo sapiens), sequence (P31751 whole entry): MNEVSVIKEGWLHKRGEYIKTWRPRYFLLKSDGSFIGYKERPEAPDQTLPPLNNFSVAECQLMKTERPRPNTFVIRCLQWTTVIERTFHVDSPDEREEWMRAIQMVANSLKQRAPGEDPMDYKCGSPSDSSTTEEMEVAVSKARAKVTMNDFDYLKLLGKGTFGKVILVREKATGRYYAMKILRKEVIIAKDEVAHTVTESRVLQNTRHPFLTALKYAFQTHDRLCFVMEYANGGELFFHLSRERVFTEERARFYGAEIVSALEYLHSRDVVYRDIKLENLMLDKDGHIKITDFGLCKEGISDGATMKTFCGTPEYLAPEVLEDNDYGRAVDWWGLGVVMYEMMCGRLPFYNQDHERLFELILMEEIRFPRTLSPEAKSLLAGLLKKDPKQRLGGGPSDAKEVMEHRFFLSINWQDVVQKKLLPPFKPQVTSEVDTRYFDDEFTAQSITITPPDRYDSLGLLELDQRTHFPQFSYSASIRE

[10] = Toxicity in 7 days post fertilize zebrafish embryo assessed as morphological abnormalities at 1 to 100 uM after 24 hrs; parameters: species or system Danio rerio; conditions: in vivo, dose 1-100 µM
[11] = Hepatotoxicity in 4 days post fertilize zebra fish embryo measured 7 days post fertilization at 1 to 100 uM; type: toxicity, Danio rerio; conditions: zebrafish, dose 1-100 µM
[12] = Inhibition of Protein kinase A (unknown origin); parameters: species or system Homo sapiens
[13] = Toxicity in 7 days post fertilize zebrafish embryo assessed as death at 1 to 100 uM after 24 hrs; parameters: species or system Danio rerio; conditions: in vivo, dose 1-100 µM
[14] = molecular target: T1, RAC-alpha serine/threonine-protein kinase; assay: Binding affinity to Akt1 (unknown origin)
PANC-1 [15] = assay: Cytotoxicity against human PANC-1 cells assessed as decrease in cell viability at 50 uM measured after 18 hrs by MTT assay; type: functional, cell-based
[16] = Microsomal stability in rat liver microsomes assessed as intrinsic clearance; type: ADME, Microsome; conditions: read-out: CLH
HCT-116 [17] = assay: Cytotoxicity against human HCT-116 cells assessed as inhibition of cell growth measured after 24 hrs by MTT assay; type: functional, cell-based; conditions: HCT-116, 24 h
[18] = Stability of compound assessed as parent compound remaining after 60 mins in rat liver microsomes; type: ADME, Microsome; conditions: read-out: Stabilty
PA-1 [19] = assay: Cytotoxicity against human PA-1 cells assessed as inhibition of cell growth measured after 24 hrs by MTT assay; type: functional, cell-based; conditions: PA-1, 24 h
[20] = Microsomal stability in rat liver microsomes assessed as half life; type: ADME, Microsome

SMILES | inhibition at 10 µM (HepG2) | inhibition at 24 h, 10 µM [1] | inhibition at 10 µM (PA-1 [2]) | inhibition at 10 µM (HCT-116 [3]) | further results
CC(C)c1nc(N(C)S(C)(=O)=O)nc(-c2ccc(F)cc2)c1COC/C=C1\OC(=O)c2cccc(Cl)c21 | 22.1% | 3.7% | 26.8% | 25.5% | –
CC(C)c1nc(N(C)S(C)(=O)=O)nc(-c2ccc(F)cc2)c1COCc1cc2ccc(Br)cc2c(=O)o1 | 23.5% | 2.8% | 18.7% | 21.7% | –
COc1cc2c(cc1OC)/C(=C/COCc1c(-c3ccc(F)cc3)nc(N(C)S(C)(=O)=O)nc1C(C)C)OC2=O | 50.1% | 4.3% | 69.8% | 53.7% | Activity [4]: Non-Toxic; inhibition (PANC-1 [5]): Active; inhibition (PANC-1 [6]): Active; Activity [7]: Non-Toxic; IC50 [8]: 3.7 µM; Activity [9]: -9.9 kcal/mol; Activity [10]: Non-Toxic; Activity [11]: Non-Toxic; IC50 [12]: > 10 µM; Activity [13]: Non-Toxic; Activity [14]: -10.9 kcal/mol; inhibition (PANC-1 [15]): Active
CC(C)c1nc(N(C)S(C)(=O)=O)nc(-c2ccc(F)cc2)c1COC/C=C1\OC(=O)c2cc(F)ccc21 | 26.7% | 3.1% | 18.9% | 18.3% | –
COc1ccc2cc(COCc3c(-c4ccc(F)cc4)nc(N(C)S(C)(=O)=O)nc3C(C)C)oc(=O)c2c1 | 39.1% | 3.7% | 38.3% | 43.2% | –
COc1ccc2c(c1)C(=O)O/C2=C\COCc1c(-c2ccc(F)cc2)nc(N(C)S(C)(=O)=O)nc1C(C)C | 39.3% | 3.2% | 46.5% | 33.5% | –
Cc1cc(Cl)cc2c1/C(=C/COCc1c(-c3ccc(F)cc3)nc(N(C)S(C)(=O)=O)nc1C(C)C)OC2=O | 14.1% | 2.2% | 18.4% | 16% | –
CC(C)c1nc(N(C)S(C)(=O)=O)nc(-c2ccc(F)cc2)c1COC/C=C1\OC(=O)c2ccccc21 | 19.3% | 2.1% | 52.3% | 20.2% | –
COc1ccc2c(=O)oc(COCc3c(-c4ccc(F)cc4)nc(N(C)S(C)(=O)=O)nc3C(C)C)cc2c1 | 39.7% | 3.4% | 40.1% | 41.8% | –
Cc1ccc2cc(COCc3c(-c4ccc(F)cc4)nc(N(C)S(C)(=O)=O)nc3C(C)C)oc(=O)c2c1 | 24.1% | 3.2% | 28.4% | 26% | –
CC(C)c1nc(N(C)S(C)(=O)=O)nc(-c2ccc(F)cc2)c1COC/C=C1\OC(=O)c2cc(Cl)ccc21 | 21.3% | 2.9% | 27% | 24.7% | –
COc1cc2cc(COCc3c(-c4ccc(F)cc4)nc(N(C)S(C)(=O)=O)nc3C(C)C)oc(=O)c2cc1OC | 48.7% | 4.9% | 68.4% | 65.6% | Activity [4]: Non-Toxic; inhibition (PANC-1 [5]): Active; inhibition (PANC-1 [6]): Active; Activity [7]: Non-Toxic; IC50 [8]: 4.3 µM; Activity [9]: -10.6 kcal/mol; microsomal CLint [16]: 26.3 µL/min/mg; Activity [10]: Non-Toxic; Activity [11]: Non-Toxic; IC50 [12]: > 10 µM; Activity [13]: Non-Toxic; IC50 (HCT-116 [17]): 0.00451 µM; remaining at 1 h [18]: 47.2%; IC50 (PA-1 [19]): 0.00076 µM; Activity [14]: -11.3 kcal/mol; half-life [20]: 1.83 h; inhibition (PANC-1 [15]): Active
CC(C)c1nc(N(C)S(C)(=O)=O)nc(-c2ccc(F)cc2)c1COCc1cc2ccc(Cl)cc2c(=O)o1 | 20.6% | 2.3% | 20.9% | 23.4% | –
COc1ccc2c(c1)/C(=C/COCc1c(-c3ccc(F)cc3)nc(N(C)S(C)(=O)=O)nc1C(C)C)OC2=O | 38.6% | 3.8% | 38.3% | 35.1% | –
CC(C)c1nc(N(C)S(C)(=O)=O)nc(-c2ccc(F)cc2)c1COC/C=C1\OC(=O)c2ccc(F)cc21 | 27.5% | 1.7% | 15.1% | 19.8% | –
Cc1ccc2c(c1)C(=O)O/C2=C\COCc1c(-c2ccc(F)cc2)nc(N(C)S(C)(=O)=O)nc1C(C)C | 29.6% | 1.6% | 22.5% | 24.3% | –
CC(C)c1nc(N(C)S(C)(=O)=O)nc(-c2ccc(F)cc2)c1COCc1cc2ccc(F)cc2c(=O)o1 | 33.2% | 3.1% | 28.9% | 36.9% | –
CC(C)c1nc(N(C)S(C)(=O)=O)nc(-c2ccc(F)cc2)c1COC/C=C1\OC(=O)c2cc(Br)ccc21 | 20.4% | 1.9% | 21.8% | 13.6% | –
CC(C)c1nc(N(C)S(C)(=O)=O)nc(-c2ccc(F)cc2)c1COCc1cc2cc(Cl)ccc2c(=O)o1 | 10.9% | 1.3% | 16.8% | 19.8% | –
COc1cccc2c1C(=O)c1c(O)c3c(c(O)c1C2=O)C[C@@](O)(C(=O)CO)C[C@@H]3O[C@H]1C[C@H](N)[C@H](O)[C@H](C)O1 [DOXORUBICIN] | 57% | – | 81.3% | 61% | Activity [9]: -8.6 kcal/mol; Activity [14]: -8.8 kcal/mol
COc1cccc2c1/C(=C/COCc1c(-c3ccc(F)cc3)nc(N(C)S(C)(=O)=O)nc1C(C)C)OC2=O | 26.5% | 4.1% | 24.3% | 25.4% | –
Cc1ccc2c(c1C)/C(=C/COCc1c(-c3ccc(F)cc3)nc(N(C)S(C)(=O)=O)nc1C(C)C)OC2=O | 21.6% | 1.9% | 19.9% | 18.9% | –
CC(C)c1nc(N(C)S(C)(=O)=O)nc(-c2ccc(F)cc2)c1COC/C=C1\OC(=O)c2ccc(Cl)cc21 | 12.6% | 3.3% | 19.4% | 29.3% | –
